Data reported in paper PMC7366380, “Discovery of a Potent and Selective Covalent Inhibitor and Activity-Based Probe for the Deubiquitylating Enzyme UCHL1, with Antifibrotic Activity” (Journal of the American Chemical Society, 2020).

Legend:
USP8 = biological target: T1, USP8 (Homo sapiens, UniProt P40818); test: biochemical
T1 sequence (P40818 1-1118): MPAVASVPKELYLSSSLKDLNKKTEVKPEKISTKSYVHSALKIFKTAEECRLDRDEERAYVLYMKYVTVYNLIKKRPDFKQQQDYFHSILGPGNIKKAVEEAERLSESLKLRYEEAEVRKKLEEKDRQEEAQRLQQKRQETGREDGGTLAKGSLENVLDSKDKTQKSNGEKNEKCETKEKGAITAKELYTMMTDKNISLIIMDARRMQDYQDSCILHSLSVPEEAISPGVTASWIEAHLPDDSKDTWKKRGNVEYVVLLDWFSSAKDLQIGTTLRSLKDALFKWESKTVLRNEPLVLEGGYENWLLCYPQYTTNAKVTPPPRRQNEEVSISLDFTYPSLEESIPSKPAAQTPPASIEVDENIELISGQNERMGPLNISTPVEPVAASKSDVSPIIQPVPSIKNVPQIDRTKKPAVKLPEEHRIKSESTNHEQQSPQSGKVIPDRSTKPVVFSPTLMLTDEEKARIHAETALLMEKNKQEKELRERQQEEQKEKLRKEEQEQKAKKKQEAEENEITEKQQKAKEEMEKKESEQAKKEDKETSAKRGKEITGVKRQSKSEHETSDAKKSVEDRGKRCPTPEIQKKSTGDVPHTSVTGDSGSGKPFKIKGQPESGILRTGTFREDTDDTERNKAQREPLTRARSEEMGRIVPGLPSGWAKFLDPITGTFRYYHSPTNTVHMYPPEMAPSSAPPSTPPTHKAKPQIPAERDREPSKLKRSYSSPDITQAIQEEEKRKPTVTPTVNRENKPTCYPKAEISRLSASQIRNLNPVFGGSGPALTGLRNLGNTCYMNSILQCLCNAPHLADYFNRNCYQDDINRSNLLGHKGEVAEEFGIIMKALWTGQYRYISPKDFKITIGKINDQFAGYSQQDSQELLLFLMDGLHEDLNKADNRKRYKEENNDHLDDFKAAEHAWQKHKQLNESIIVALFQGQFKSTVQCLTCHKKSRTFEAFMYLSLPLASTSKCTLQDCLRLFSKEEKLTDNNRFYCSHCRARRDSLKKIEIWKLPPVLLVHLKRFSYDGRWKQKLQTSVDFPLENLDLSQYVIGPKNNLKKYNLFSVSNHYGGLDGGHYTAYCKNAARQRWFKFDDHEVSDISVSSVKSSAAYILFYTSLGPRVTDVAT

USP34 = USP34 (Homo sapiens, UniProt Q70CQ2); test: Biochemical DUB selectivity profiling assay: USP34; settings: Ub-Rho110 400 nM, buffer B; read-out: Biochemical IC50 range, USP34
Description: (§1) DUB Assay Substrate Substrate
(§2) Buffer Concentration (nM) […]
(§3) Sepharose® 4B resin (GE Healthcare).
(§4) 10 kDa molecular weight cut-off (MWCO)).
(§5) Fractions containing protein
(§6) Protein concentration was […]
(§7) reaction volume of 21 μL. […]
(§8) compound (final concentration 5 nM).
(§9) IC50 values were determined
(§10) Biochemical DUB selectivity profiling assays […]
(§11) in 40 µL total reaction volume.

TRABID = biological target: T2, TRABID (Homo sapiens, UniProt Q9UGI0); test: Biochemical DUB selectivity profiling assay: TRABID; settings: Ub-Rho110 400 nM, buffer B; read-out: Biochemical IC50 range, TRABID
T2 sequence (Q9UGI0 1-708): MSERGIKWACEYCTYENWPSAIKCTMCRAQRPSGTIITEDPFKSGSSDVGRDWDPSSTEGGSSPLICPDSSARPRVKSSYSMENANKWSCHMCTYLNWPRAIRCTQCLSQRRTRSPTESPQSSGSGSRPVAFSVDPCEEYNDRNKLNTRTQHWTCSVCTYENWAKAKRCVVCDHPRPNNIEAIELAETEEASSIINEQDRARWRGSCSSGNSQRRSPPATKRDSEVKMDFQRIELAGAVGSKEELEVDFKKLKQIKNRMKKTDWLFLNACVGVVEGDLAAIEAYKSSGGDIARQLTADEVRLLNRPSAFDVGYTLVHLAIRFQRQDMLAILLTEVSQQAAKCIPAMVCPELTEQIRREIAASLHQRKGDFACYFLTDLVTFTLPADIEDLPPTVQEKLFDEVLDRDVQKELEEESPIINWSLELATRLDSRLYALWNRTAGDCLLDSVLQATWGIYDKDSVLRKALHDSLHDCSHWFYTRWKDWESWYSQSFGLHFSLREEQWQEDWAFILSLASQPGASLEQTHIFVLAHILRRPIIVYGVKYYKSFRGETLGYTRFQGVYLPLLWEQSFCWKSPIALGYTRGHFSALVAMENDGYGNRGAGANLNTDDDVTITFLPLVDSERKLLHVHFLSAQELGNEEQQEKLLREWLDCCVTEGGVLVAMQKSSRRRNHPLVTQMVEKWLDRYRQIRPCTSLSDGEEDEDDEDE
Description: as §1, §2, §3, §4, §5, §6, §7, §8, §9, §10, §11

USP21 = biological target: T3, USP21 (Homo sapiens, UniProt Q9UK80); test: biochemical
T3 sequence (Q9UK80 1-565): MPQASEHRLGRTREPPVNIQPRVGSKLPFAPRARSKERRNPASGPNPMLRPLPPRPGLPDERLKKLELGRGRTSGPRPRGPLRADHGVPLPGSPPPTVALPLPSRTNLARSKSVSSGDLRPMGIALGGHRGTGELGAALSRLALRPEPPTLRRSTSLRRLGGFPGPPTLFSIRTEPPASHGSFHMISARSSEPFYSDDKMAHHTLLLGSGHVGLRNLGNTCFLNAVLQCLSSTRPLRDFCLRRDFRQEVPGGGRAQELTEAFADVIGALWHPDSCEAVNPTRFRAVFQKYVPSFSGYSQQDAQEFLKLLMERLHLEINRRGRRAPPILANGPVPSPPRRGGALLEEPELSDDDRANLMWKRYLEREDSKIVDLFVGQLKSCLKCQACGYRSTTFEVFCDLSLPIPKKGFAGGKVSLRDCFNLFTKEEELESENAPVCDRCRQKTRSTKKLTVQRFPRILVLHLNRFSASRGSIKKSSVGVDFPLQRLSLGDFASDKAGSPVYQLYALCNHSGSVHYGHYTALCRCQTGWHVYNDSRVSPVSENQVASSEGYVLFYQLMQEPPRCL

[1] = FMT assay, cell number (DAPI nuclei count); settings: human

Sequence of USP34 (Q70CQ2 whole entry): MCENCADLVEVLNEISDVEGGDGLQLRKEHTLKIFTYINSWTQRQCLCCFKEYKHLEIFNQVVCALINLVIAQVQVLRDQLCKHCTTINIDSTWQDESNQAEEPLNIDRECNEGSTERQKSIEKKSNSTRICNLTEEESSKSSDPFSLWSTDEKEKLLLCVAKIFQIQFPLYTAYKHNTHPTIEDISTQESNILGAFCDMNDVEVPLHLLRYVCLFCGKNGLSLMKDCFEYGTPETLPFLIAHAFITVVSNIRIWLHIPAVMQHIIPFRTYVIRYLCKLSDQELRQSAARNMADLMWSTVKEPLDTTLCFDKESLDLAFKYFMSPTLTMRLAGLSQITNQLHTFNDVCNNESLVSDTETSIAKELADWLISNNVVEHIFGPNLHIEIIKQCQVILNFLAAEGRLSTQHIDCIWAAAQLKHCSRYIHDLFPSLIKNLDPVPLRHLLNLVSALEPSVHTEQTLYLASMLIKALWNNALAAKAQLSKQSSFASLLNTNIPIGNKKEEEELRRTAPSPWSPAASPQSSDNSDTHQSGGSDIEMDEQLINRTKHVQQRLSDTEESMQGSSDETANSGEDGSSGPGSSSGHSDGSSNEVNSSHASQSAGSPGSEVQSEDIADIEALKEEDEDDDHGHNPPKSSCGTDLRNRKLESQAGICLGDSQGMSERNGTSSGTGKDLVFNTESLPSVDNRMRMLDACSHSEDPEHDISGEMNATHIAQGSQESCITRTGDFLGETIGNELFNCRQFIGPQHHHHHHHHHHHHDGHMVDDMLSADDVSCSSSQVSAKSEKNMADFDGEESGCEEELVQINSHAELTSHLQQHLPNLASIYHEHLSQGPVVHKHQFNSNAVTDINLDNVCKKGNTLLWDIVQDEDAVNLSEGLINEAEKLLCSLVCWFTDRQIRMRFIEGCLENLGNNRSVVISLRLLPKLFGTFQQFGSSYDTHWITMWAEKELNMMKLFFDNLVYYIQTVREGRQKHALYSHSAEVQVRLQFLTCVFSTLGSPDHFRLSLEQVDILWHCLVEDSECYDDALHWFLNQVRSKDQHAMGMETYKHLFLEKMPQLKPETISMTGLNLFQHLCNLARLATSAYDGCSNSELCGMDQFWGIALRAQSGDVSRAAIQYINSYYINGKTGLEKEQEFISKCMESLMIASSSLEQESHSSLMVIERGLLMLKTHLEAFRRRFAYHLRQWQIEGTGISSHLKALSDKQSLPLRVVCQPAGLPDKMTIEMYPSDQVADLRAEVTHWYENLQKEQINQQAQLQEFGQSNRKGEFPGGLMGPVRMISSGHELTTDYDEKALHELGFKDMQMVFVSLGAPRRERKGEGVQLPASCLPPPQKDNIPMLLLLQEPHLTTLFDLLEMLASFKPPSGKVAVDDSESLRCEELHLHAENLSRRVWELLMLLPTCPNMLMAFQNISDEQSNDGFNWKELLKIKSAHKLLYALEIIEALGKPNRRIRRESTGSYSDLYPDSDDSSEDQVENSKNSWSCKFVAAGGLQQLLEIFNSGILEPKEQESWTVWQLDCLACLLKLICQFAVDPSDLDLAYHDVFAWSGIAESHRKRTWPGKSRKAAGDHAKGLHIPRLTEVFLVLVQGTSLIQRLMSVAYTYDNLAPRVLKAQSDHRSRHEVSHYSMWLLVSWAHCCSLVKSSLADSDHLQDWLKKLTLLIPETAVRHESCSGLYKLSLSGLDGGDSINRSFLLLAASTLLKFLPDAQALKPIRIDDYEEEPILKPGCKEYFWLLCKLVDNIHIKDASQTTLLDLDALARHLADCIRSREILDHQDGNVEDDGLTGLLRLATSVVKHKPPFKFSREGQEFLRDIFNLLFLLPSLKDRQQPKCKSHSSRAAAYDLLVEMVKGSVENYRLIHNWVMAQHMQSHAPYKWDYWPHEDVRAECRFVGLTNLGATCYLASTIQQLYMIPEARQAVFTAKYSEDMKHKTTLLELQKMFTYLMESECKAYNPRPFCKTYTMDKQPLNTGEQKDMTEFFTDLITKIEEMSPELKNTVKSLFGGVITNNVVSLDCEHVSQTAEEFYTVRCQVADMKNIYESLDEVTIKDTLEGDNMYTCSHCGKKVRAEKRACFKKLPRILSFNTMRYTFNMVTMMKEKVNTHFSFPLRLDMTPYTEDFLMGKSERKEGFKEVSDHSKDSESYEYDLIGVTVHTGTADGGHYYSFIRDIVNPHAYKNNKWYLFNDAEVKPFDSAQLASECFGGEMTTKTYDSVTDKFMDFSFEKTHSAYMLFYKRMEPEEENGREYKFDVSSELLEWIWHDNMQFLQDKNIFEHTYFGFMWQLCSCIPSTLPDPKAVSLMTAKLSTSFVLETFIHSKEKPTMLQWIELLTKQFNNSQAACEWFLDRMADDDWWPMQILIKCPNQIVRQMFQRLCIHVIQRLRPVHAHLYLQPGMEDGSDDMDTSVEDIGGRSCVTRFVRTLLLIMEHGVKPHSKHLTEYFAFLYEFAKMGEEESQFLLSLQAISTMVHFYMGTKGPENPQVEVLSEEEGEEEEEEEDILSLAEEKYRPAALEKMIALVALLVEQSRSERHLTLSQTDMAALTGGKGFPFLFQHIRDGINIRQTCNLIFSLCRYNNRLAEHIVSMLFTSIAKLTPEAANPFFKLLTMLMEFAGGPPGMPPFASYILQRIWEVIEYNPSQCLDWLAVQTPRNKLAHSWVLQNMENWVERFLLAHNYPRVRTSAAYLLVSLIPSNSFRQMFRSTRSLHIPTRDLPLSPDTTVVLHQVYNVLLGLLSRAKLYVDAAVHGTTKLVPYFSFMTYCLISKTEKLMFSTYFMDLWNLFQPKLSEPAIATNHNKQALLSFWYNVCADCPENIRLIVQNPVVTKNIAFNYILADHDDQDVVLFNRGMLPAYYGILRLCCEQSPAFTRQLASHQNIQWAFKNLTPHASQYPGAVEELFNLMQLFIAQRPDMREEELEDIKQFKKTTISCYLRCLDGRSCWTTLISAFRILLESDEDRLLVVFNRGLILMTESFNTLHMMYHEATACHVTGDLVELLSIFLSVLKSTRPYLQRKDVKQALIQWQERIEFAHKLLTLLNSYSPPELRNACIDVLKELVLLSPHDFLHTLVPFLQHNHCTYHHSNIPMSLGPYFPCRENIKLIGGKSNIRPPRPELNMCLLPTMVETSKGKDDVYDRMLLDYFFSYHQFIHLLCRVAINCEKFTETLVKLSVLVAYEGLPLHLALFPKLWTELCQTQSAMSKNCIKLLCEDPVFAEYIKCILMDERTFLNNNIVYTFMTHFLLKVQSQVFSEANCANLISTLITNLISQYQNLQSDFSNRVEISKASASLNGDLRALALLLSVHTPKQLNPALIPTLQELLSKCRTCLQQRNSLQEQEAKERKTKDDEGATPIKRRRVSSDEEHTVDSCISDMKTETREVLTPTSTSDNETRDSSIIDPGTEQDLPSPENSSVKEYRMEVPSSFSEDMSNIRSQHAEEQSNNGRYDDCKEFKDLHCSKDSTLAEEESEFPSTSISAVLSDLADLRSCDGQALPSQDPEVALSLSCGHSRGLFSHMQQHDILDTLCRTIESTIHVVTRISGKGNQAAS

Compound | IC50 (USP8) | IC50 (USP34) | IC50 (TRABID) | IC50 (USP21) | EC50 at 3 days [1]
CC(=O)O/N=C1\C(=O)N(Cc2cc(Cl)ccc2Cl)c2ccc(Cl)cc21 [LDN-57444, reference compound] | > 10 µM | > 10 µM | > 10 µM | > 10 µM | –
N#CN1CCC[C@@H]1C(=O)N1CCc2c(-c3c[nH]c4ncccc34)cccc21 [Compound 3] | > 10 µM | > 10 µM | > 10 µM | > 10 µM | ~23 µM
N#CN1CCC[C@H]1C(=O)N1CCc2c(-c3c[nH]c4ncccc34)cccc21 [Compound 1] | > 10 µM | 1 to 10 µM | > 10 µM | > 10 µM | ~11 µM
C#Cc1cnc2[nH]cc(-c3cccc4c3CCN4C(=O)[C@@H]3CCCN3C#N)c2c1 [Compound 2] | – | 1 to 10 µM | > 10 µM | – | ~11 µM
